Experimental data: PubChem BioAssay (NCI)
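Protocol summary: plate cells (96-well), add compound at 5 concentrations, incubate 48 h, interpolate endpoints linearly. The concentration for 50% growth inhibition is given as GI50. TGI is the concentration that stops growth completely.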

Key:
Experiment in all cases: growth of human tumour cells (NCI), 48 h
[1] = system: A549 NSCLC
[2] = system: HOP-92 NSCLC
[3] = system: LOX IMVI melanoma
[4] = system: OVCAR-5 ovarian
[5] = system: SF-268 CNS
[6] = system: SK-MEL-28 melanoma
[7] = system: SK-MEL-5 melanoma
[8] = system: SW-620 colon
[9] = system: MDA-MB-231 breast
[10] = system: 786-0 renal

COc1cc(CNc2nc3c(NC(C)=O)cc(C(F)(F)F)cc3nc2-c2ccccc2)cc(OC)c1OC
TGI [1]: > 100 µM | TGI [2]: > 100 µM | TGI [3]: > 100 µM | TGI [4]: > 100 µM | TGI [5]: > 100 µM | TGI [6]: > 100 µM | TGI [7]: > 100 µM | TGI [8]: > 100 µM

Nc1ncnc2c1ncn2C1C(O)C=C(CO)C1O (centres undefined)
TGI [1]: > 625 µM | TGI [2]: > 625 µM | TGI [3]: > 625 µM | TGI [5]: > 625 µM | TGI [7]: > 625 µM | TGI [8]: > 625 µM

CCOC(=O)/C(=C/c1cn(C(C)=O)c2ccccc12)P(=O)(OC)OC
TGI [1]: > 100 µM | TGI [2]: > 100 µM | TGI [3]: 79.2 µM | TGI [9]: > 100 µM | TGI [4]: > 100 µM | TGI [6]: > 100 µM | TGI [7]: > 100 µM | TGI [8]: > 100 µM

FC(F)(Sc1ncccn1)c1nc2ccccc2o1
TGI [10]: > 100 µM | TGI [1]: > 100 µM | TGI [2]: > 100 µM | TGI [9]: > 100 µM | TGI [4]: > 100 µM | TGI [5]: > 100 µM | TGI [6]: > 100 µM | TGI [7]: > 100 µM | TGI [8]: > 100 µM

COc1cc(C2C3=C(NC(=O)C2C#N)c2ccc4ccccc4c2OCC3)cc(OC)c1OC (centres undefined)
TGI [10]: > 100 µM | TGI [1]: > 100 µM | TGI [2]: 29.7 µM | TGI [4]: 42.3 µM | TGI [5]: 64.1 µM | TGI [6]: > 100 µM | TGI [7]: > 100 µM | TGI [8]: > 100 µM

Oc1ccccc1/C=N/c1nc(-c2ccccc2)cs1
GI50 [1]: > 100 µM | TGI [1]: > 100 µM | GI50 [2]: 8.22 µM | TGI [2]: > 100 µM | GI50 [3]: 17.6 µM | TGI [3]: 46.9 µM | GI50 [9]: 20 µM | TGI [9]: > 100 µM | GI50 [4]: 32.2 µM | TGI [4]: > 100 µM | GI50 [5]: 81.1 µM | TGI [5]: > 100 µM | GI50 [6]: > 100 µM | TGI [6]: > 100 µM | GI50 [7]: 47.6 µM | TGI [7]: > 100 µM | GI50 [8]: 14 µM | TGI [8]: 40 µM

CCN(CCCl)c1cc(CN(C)C)cc(NC(=O)c2ccc(C(=O)Nc3cccc(N(CCCl)NN)c3)cc2)c1
TGI [1]: 2.52 µM | TGI [2]: 0.707 µM | TGI [3]: 0.034 µM | TGI [9]: 0.69 µM | TGI [4]: 0.989 µM | TGI [5]: 20.5 µM | TGI [6]: 0.505 µM | TGI [7]: 0.174 µM

CCOC(=O)CSc1nc(-c2ccc(Cl)cc2)c(C#N)c(=O)[nH]1
TGI [10]: > 100 µM | TGI [1]: > 100 µM | TGI [2]: > 100 µM | TGI [9]: > 100 µM | TGI [4]: > 100 µM | TGI [5]: > 100 µM | TGI [6]: > 100 µM | TGI [7]: > 100 µM | TGI [8]: > 100 µM

Cc1cc(C)c(C2=NO[C@@H]3[C@H]2C(=O)C=C2N(Cc4ccccc4)CCO[C@@]23O)c(C)c1
TGI [1]: > 100 µM | TGI [2]: > 100 µM | TGI [3]: > 100 µM | TGI [4]: > 100 µM | TGI [5]: > 100 µM | TGI [6]: > 100 µM | TGI [7]: > 100 µM | TGI [8]: > 100 µM

COc1ccc(C2CC(c3cccc(Nc4ccncc4)c3)=NN2c2ccccc2)cc1 (centres undefined)
GI50 [3]: 1.74 µM | TGI [3]: 3.11 µM | GI50 [9]: 1.62 µM | TGI [9]: 3.04 µM | GI50 [4]: 3.29 µM | TGI [4]: 12.1 µM | GI50 [5]: 2.91 µM | TGI [5]: 9.98 µM | GI50 [6]: 1.69 µM | TGI [6]: 3.24 µM | GI50 [7]: 1.8 µM | TGI [7]: 3.28 µM | GI50 [8]: 1.81 µM | TGI [8]: 3.43 µM

CCOC(=O)CC1(N)CC2c3ccccc3OC(=O)C2C(=O)N1 (centres undefined)
TGI [10]: > 100 µM | TGI [1]: > 100 µM | TGI [2]: > 100 µM | TGI [3]: > 100 µM | TGI [9]: > 100 µM | TGI [4]: > 100 µM | TGI [5]: > 100 µM | TGI [6]: > 100 µM | TGI [8]: > 100 µM

Nc1c(-c2ccccc2)c2ccc([N+](=O)[O-])cc2c(=O)n1-c1cccc(C(=O)O)c1
TGI [1]: > 100 µM | TGI [3]: > 100 µM | TGI [9]: > 100 µM | TGI [4]: > 100 µM | TGI [5]: > 100 µM | TGI [6]: > 100 µM | TGI [7]: > 100 µM | TGI [8]: > 100 µM

CCOC(=O)CCC(C(=O)OCC)n1nnc2cc(Nc3c(C)[n+]([O-])c4cc(Cl)ccc4[n+]3[O-])ccc21 (centres undefined)
TGI [10]: > 100 µM | TGI [1]: > 100 µM | TGI [2]: > 100 µM | TGI [3]: > 100 µM | TGI [4]: > 100 µM | TGI [5]: > 100 µM | TGI [7]: > 100 µM | TGI [8]: > 100 µM

CN(C)CCCNC(=O)N/N=C/c1ccccn1
TGI [1]: > 10 µM | TGI [2]: > 10 µM | TGI [3]: > 10 µM | TGI [9]: > 10 µM | TGI [4]: > 10 µM | TGI [5]: > 10 µM | TGI [6]: > 10 µM | TGI [7]: > 10 µM | TGI [8]: > 10 µM

CCOC(=O)CC1C(C(=O)OCC)=Cn2c([nH]c3cccc4cccc2c43)=C1C(=O)OCC (centres undefined)
TGI [10]: > 100 µM | TGI [1]: > 100 µM | TGI [2]: > 100 µM | TGI [3]: > 100 µM | TGI [4]: > 100 µM | TGI [6]: > 100 µM | TGI [7]: > 100 µM | TGI [8]: > 100 µM

O=c1[nH]c(NCCCCCO)nc2nc[nH]c12
TGI [10]: > 100 µM | TGI [2]: > 100 µM | TGI [3]: > 100 µM | TGI [9]: > 100 µM | TGI [4]: > 100 µM | TGI [5]: > 100 µM | TGI [7]: > 100 µM | TGI [8]: > 100 µM

C[N+](C)([O-])C12CC3CC(CC(C3)C1)C2
TGI [10]: > 100 µM | TGI [1]: > 100 µM | TGI [3]: 63.8 µM | TGI [9]: > 100 µM | TGI [4]: > 100 µM | TGI [5]: > 100 µM | TGI [6]: > 100 µM | TGI [7]: > 100 µM | TGI [8]: > 100 µM

CC(C)(C)c1cc(C(C)(C)C)c2sc(=O)oc2c1O
TGI [10]: 38.1 µM | TGI [1]: 27.6 µM | TGI [2]: 30.8 µM | TGI [3]: 27.7 µM | TGI [9]: 33.4 µM | TGI [4]: 33.4 µM | TGI [5]: 26.4 µM | TGI [6]: 32.5 µM | TGI [7]: 27.9 µM

Cc1cc(C)n(C(=CC(=O)C(Cl)Cl)n2nc(C)cc2C)n1
TGI [10]: 10 µM | TGI [1]: 67 µM | TGI [2]: 24.2 µM | TGI [3]: 3.67 µM | TGI [9]: 12.3 µM | TGI [4]: 14.5 µM | TGI [5]: > 100 µM | TGI [7]: 20.3 µM | TGI [8]: 40.6 µM

O=C(O)C1C2OC(C(Br)C2Br)C1C(=O)O (centres undefined)
TGI [10]: > 100 µM | TGI [1]: > 100 µM | TGI [3]: > 100 µM | TGI [9]: > 100 µM | TGI [4]: > 100 µM | TGI [5]: > 100 µM | TGI [6]: > 100 µM | TGI [7]: > 100 µM | TGI [8]: > 100 µM

CC(C)C(Nc1c2ccccc2[n+](C)c2ccccc12)C(=O)O (centres undefined)
TGI [10]: > 100 µM | TGI [1]: > 100 µM | TGI [4]: > 100 µM | TGI [5]: > 100 µM | TGI [7]: > 100 µM | TGI [8]: > 100 µM

CC1(c2ccc(Cl)cc2)c2ccccc2C(=O)N1CCCN1C(=O)c2ccccc2C1=O (centres undefined)
TGI [10]: > 100 µM | TGI [1]: > 100 µM | TGI [2]: > 100 µM | TGI [3]: 47.5 µM | TGI [9]: > 100 µM | TGI [5]: > 100 µM | TGI [6]: > 100 µM | TGI [7]: 31 µM | TGI [8]: > 100 µM

Cc1cc(Br)c(O)c(-c2cscn2)c1
TGI [10]: 8.39 µM | TGI [1]: 50.4 µM | TGI [2]: 43.1 µM | TGI [3]: 23.1 µM | TGI [4]: 36.4 µM | TGI [7]: 30.5 µM | TGI [8]: 31.5 µM
